PMC4450297, “Screening Active Compounds from Garcinia Species Native to China Reveals Novel Compounds Targeting the STAT/JAK Signaling Pathway” (BioMed Research International, 2015)

Tests used:
Assay in all cases: Cell panel screen (CellTiter-Glo)
Format in all cases: cell-based, human
HCC1395 = details: Homo sapiens; HCC1395 (Breast), 20 micromolar, 72 hrs; read-out: Percent Inhibition
How it was run: (§1)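 Luminescence from luciferase-driven ATP detection gave the read-out. Compounds were tested at a single final concentration of 20 μM for 72 h, and inhibition was expressed as a percentage of the untreated signal after background correction.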

ZR-75-30 = details: Homo sapiens; ZR-75-30 (Breast), 20 micromolar, 72 hrs; read-out: Percent Inhibition
How it was run: as §1

HCC1569 = details: Homo sapiens; HCC1569 (Breast), 20 micromolar, 72 hrs; read-out: Percent Inhibition
How it was run: as §1

NCI-H28 = details: Homo sapiens; NCI-H28 (Lung), 20 micromolar, 72 hrs; read-out: Percent Inhibition
How it was run: as §1

A704 = details: Homo sapiens; A704 (Kidney), 20 micromolar, 72 hrs; read-out: Percent Inhibition
How it was run: as §1

BT-549 = details: Homo sapiens; BT-549 (Breast), 20 micromolar, 72 hrs; read-out: Percent Inhibition
How it was run: as §1

C3A = details: Homo sapiens; C3A (Liver), 20 micromolar, 72 hrs; read-out: Percent Inhibition
How it was run: as §1

CW-2 = details: Homo sapiens; CW-2 (Colon), 20 micromolar, 72 hrs; read-out: Percent Inhibition
How it was run: as §1

NCI-H1770 = details: Homo sapiens; NCI-H1770 (Lung), 20 micromolar, 72 hrs; read-out: Percent Inhibition
How it was run: as §1

M059J = details: Homo sapiens; M059J (Brain), 20 micromolar, 72 hrs; read-out: Percent Inhibition
How it was run: as §1

BT-474 = details: Homo sapiens; BT-474 (Breast), 20 micromolar, 72 hrs; read-out: Percent Inhibition
How it was run: as §1

ChaGo-K-1 = details: Homo sapiens; ChaGo-K-1 (Lung), 20 micromolar, 72 hrs; read-out: Percent Inhibition
How it was run: as §1

NCI-H2347 = details: Homo sapiens; NCI-H2347 (Lung), 20 micromolar, 72 hrs; read-out: Percent Inhibition
How it was run: as §1

A498 = details: Homo sapiens; A498 (listed under Lung), 20 micromolar, 72 hrs; read-out: Percent Inhibition
How it was run: as §1

NCI-H2405 = details: Homo sapiens; NCI-H2405 (Lung), 20 micromolar, 72 hrs; read-out: Percent Inhibition
How it was run: as §1

HT-1197 = details: Homo sapiens, HT1197; HT-1197 (Urinary bladder), 20 micromolar, 72 hrs; read-out: Percent Inhibition
How it was run: as §1

CCF-STTG1 = details: Homo sapiens; CCF-STTG1 (Brain), 20 micromolar, 72 hrs; read-out: Percent Inhibition
How it was run: as §1

Colo 205 = details: Homo sapiens; Colo 205, 20 micromolar, 72 hrs; read-out: Percent Inhibition
How it was run: as §1

T98G = details: Homo sapiens; T98G (Brain), 20 micromolar, 72 hrs; read-out: Percent Inhibition
How it was run: as §1

NCI-H1694 = details: Homo sapiens; NCI-H1694 (Lung), 20 micromolar, 72 hrs; read-out: Percent Inhibition
How it was run: as §1

MSTO-211-H = details: Homo sapiens; MSTO-211-H (Lung), 20 micromolar, 72 hrs; read-out: Percent Inhibition
How it was run: as §1

Panc 03.27 = details: Homo sapiens, PANC-03-27; Panc 03.27 (Pancreas), 20 micromolar, 72 hrs; read-out: Percent Inhibition
How it was run: as §1

HGC-27 = details: Homo sapiens; HGC-27 (Stomach), 20 micromolar, 72 hrs; read-out: Percent Inhibition
How it was run: as §1

HCC1599 = details: Homo sapiens; HCC1599 (Breast), 20 micromolar, 72 hrs; read-out: Percent Inhibition
How it was run: as §1

NCI-H524 = details: Homo sapiens; NCI-H524 (Lung), 20 micromolar, 72 hrs; read-out: Percent Inhibition
How it was run: as §1

HCC1937 = details: Homo sapiens; HCC1937 (Breast), 20 micromolar, 72 hrs; read-out: Percent Inhibition
How it was run: as §1

HEC-1-A = details: Homo sapiens; HEC-1-A (Uterus), 20 micromolar, 72 hrs; read-out: Percent Inhibition
How it was run: as §1

NCI-H1623 = details: Homo sapiens; NCI-H1623 (Lung), 20 micromolar, 72 hrs; read-out: Percent Inhibition
How it was run: as §1

SMILES | inhibition at 20 µM (HCC1395) [%] | inhibition at 20 µM (ZR-75-30) [%] | inhibition at 20 µM (HCC1569) [%] | inhibition at 20 µM (NCI-H28) [%] | inhibition at 20 µM (A704) [%] | inhibition at 20 µM (BT-549) [%] | inhibition at 20 µM (C3A) [%] | inhibition at 20 µM (CW-2) [%] | inhibition at 20 µM (NCI-H1770) [%] | inhibition at 20 µM (M059J) [%] | inhibition at 20 µM (BT-474) [%] | inhibition at 20 µM (ChaGo-K-1) [%] | inhibition at 20 µM (NCI-H2347) [%] | inhibition at 20 µM (A498) [%] | inhibition at 20 µM (NCI-H2405) [%] | inhibition at 20 µM (HT-1197) [%] | inhibition at 20 µM (CCF-STTG1) [%] | inhibition at 20 µM (Colo 205) [%] | inhibition at 20 µM (T98G) [%] | inhibition at 20 µM (NCI-H1694) [%] | also measured
CC(C)=CCC[C@@]1(C)C=Cc2c(O)c3c(c(CCC(C)(C)O)c2O1)O[C@]12C(=C[C@@H]4C[C@H]1C(C)(C)O[C@@]2(C/C=C(/C)C(=O)O)C4=O)C3=O [GB39, 33-hydroxyepigambogic acid] | 100 | 100 | 100 | 99 | 99 | 100 | 99 | 100 | 100 | 100 | 100 | 100 | 99 | 99 | 100 | 100 | 100 | 100 | 100 | 100 | inhibition at 20 µM (MSTO-211-H): 100%; inhibition at 20 µM (Panc 03.27): 100%; inhibition at 20 µM (HGC-27): 100%; inhibition at 20 µM (HCC1599): 100%; inhibition at 20 µM (NCI-H524): 100%; inhibition at 20 µM (HCC1937): 100%; inhibition at 20 µM (HEC-1-A): 100%; inhibition at 20 µM (NCI-H1623): 100%
CC(C)=CCC[C@@]1(C)C=Cc2c(O)c3c(c(C/C=C(\C)CO)c2O1)O[C@]12C(=C[C@@H]4C[C@H]1C(C)(C)O[C@@]2(C/C=C(/C)C(=O)O)C4=O)C3=O [GB40, 35-hydroxyepigambogic acid] | 98 | 99 | 99 | 98 | 98 | 99 | 98 | 99 | 99 | 99 | 99 | 98 | 98 | 98 | 99 | 99 | 99 | 99 | 99 | 99 | inhibition at 20 µM (MSTO-211-H): 98%; inhibition at 20 µM (Panc 03.27): 99%; inhibition at 20 µM (HGC-27): 99%; inhibition at 20 µM (HCC1599): 99%; inhibition at 20 µM (NCI-H524): 99%; inhibition at 20 µM (HCC1937): 99%; inhibition at 20 µM (HEC-1-A): 99%; inhibition at 20 µM (NCI-H1623): 99%
CC(C)=CCC/C(C)=C/Cc1c(O)c(CC=C(C)C)c2c(c1O)C(=O)C1=C[C@@H]3C[C@H]4C(C)(C)O[C@@](C/C=C(\C)C=O)(C3=O)[C@@]14O2 [GB49] | 99 | 100 | 99 | 97 | 98 | 99 | 97 | 99 | 99 | 99 | 99 | 99 | 98 | 88 | 99 | 96 | 99 | 100 | 99 | 100 | inhibition at 20 µM (MSTO-211-H): 99%; inhibition at 20 µM (Panc 03.27): 98%; inhibition at 20 µM (HGC-27): 98%; inhibition at 20 µM (HCC1599): 99%; inhibition at 20 µM (NCI-H524): 100%; inhibition at 20 µM (HCC1937): 99%; inhibition at 20 µM (HEC-1-A): 99%; inhibition at 20 µM (NCI-H1623): 99%
CC(C)=CCC/C(C)=C/Cc1c(O)c(CC=C(C)C)c2c(c1O)C(=O)C1=C[C@@H]3C[C@H]4C(C)(C)O[C@@](C/C=C(\C)C(=O)O)(C3=O)[C@@]14O2 [GB63] | 99 | 99 | 99 | 99 | 99 | 99 | 99 | 99 | 99 | 99 | 99 | 100 | 98 | 98 | 99 | 99 | 99 | 99 | 99 | 100 | inhibition at 20 µM (MSTO-211-H): 99%; inhibition at 20 µM (Panc 03.27): 99%; inhibition at 20 µM (HGC-27): 99%; inhibition at 20 µM (HCC1599): 99%; inhibition at 20 µM (NCI-H524): 98%; inhibition at 20 µM (HCC1937): 100%; inhibition at 20 µM (HEC-1-A): 99%; inhibition at 20 µM (NCI-H1623): 99%
